This is an account of results in PMC10674565 (Pharmaceuticals, 2023).

The structures appear in SMILES notation.

Data set [1] can be described thus: Cytotoxicity (MTT) assay, Caco-2 cells. The class given is cell-based. The conditions noted are these: human, 1–500 µM, read-out: viability compared to the control. The procedure:
(§1) Caco-2 and HEK93 cells were incubated in a 96-well microplate (10^4 cells per well) with different concentrations (1, 10, 50, 100, and 500 µM) of EMHPS for 24 h. At the end of incubation, 20 μL of 0.5% 3-(4,5-dimethylthiazol-2-yl)-2,5-diphenyltetrazolium bromide (MTT) was added to each well, followed by a 2 h incubation. The MTT solution was then aspirated and 200 μL of […] dimethyl sulfoxide solution (PanEko) was added. Absorption was recorded after 10 min at 530 nm with a Stat Fax 2100 plate reader (Awareness Technology, Palm City, FL, USA). The survival of cells in the presence of EMHPS was calculated according to the equation: (optical density (OD) of test wells − OD of medium)/(OD of control wells − OD of medium) × 100%, where OD is the optical density.

Data set [2] in a line: Cytotoxicity (MTT) assay, HEK293 cells. The class given is cell-based. The conditions noted are these: human, 1–500 µM, read-out: viability compared to the control. The procedure:
as §1

Details of data set [3]: method as in earlier work. Conditions: blood plasma; cited from earlier work.
Data set [4] concerns CYP3A4 isoenzyme. Also on record: method as in PMID 21254598. The conditions noted are these: cited from earlier work.
Data set [5] deals with hemispheric ischemic stroke. More on the design: method as in doi:10.1007/s11055-018-0652-y. Conditions: 151 patients with hemispheric ischemic stroke; cited from earlier work.
Data set [6] concerns chronic brain ischemia. Also on record: method as in PMID 34932280. Conditions: 318 patients with chronic brain ischemia; cited from earlier work.
The target of data set [7] is ABCB1 (Homo sapiens, UniProt P08183). The data set can be described thus: EMHPS transport through the Caco-2 cells monolayer (ABCB1 substrate test). In kind it is in vitro ADME. More on the design: Caco-2 cells were used to test the effect of EMHPS on the expression and activity of ABCB1; endogenous in cells; host or cells: Caco-2. The procedure:
The medium was changed every 2–3 days.
The medium in chambers was removed and the cell monolayers were washed twice in warm (37 °C) transport medium (Hanks‚ balanced salt solution containing 10 mM HEPES and 1% dimethylsulfoxide (DMSO)). […] Chamber–recipient was filled with transport medium without EMHPS. At 60, 120, and 180 min, 100 μL samples were taken from the recipient chamber and the drug concentration was analyzed. EMHPS transport was assessed in the absorptive (apical to basolateral, a-b) and secretory (b-a) directions.
The apparent permeability (Papp) of EMHPS through Caco-2 monolayers was calculated using Equation (1). (1) Papp=dQ/dt×1/A×C0
A, membrane surface area (1.12 cm^2); C0, EMHPS concentration at t = 0 µM; and dQ/dt, amount of EMHPS transported within a given time period µM/s.
The ratio of Papp (b-a) and Papp (a-b), known as the efflux ratio (ER), was calculated in accordance with the following Equation (2):(2) ER=Papp b-a/Papp a-b
The ER was used as a marker for permeability through Caco-2 cell monolayers.
EMHPS concentrations in the transport medium (transport experiments with Caco-2 cells) were analyzed using HPLC-UV (HPLC chromatograph Stayer) with UV detection at a wavelength of 296 nm. The sample (50 µL) was diluted in 150 µL of the mobile phase, and 100 µL of the resulting solution was injected into the chromatograph. In the analysis, a Beckman Coulter 4.6 × 150 mm, 5 μm chromatographic column was used.
The separation temperature was 35 °C. The flow rate was 0.8 mL/min. Mobile phase composition: acetonitrile and water in a 20:80 v/v ratio with the addition of acetic acid to pH 3.25. The retention time of EMHPS under these conditions was 5.5 min.

For data set [8], the target named is T1, SLCO1B1 (Homo sapiens, UniProt Q9Y6L6).
T1 sequence (Q9Y6L6 1-691): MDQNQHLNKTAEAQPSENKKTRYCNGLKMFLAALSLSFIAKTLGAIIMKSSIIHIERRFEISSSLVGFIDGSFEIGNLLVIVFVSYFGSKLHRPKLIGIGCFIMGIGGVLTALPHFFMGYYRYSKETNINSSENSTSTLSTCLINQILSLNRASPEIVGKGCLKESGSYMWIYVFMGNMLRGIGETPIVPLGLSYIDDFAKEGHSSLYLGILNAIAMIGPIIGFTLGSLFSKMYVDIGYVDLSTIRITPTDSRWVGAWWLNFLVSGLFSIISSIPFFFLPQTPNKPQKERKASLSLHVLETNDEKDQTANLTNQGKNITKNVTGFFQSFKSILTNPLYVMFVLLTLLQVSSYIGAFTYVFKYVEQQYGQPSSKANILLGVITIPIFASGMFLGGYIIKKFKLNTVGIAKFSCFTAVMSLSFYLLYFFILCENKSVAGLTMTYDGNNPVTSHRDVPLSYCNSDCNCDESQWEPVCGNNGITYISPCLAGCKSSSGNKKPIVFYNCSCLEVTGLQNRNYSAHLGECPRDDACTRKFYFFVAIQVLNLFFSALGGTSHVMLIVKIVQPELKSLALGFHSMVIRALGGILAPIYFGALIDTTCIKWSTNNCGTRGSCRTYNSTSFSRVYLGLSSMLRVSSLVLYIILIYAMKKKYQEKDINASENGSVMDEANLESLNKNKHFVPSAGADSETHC
The data set is described as follows: Inhibition of SLCO1B1-mediated uptake of atorvastatin in HEK293-SLCO1B1 cells. In kind it is in vitro ADME. More on the design: The SLCO1B1 gene was obtained via synthesis and was cloned into the pEGFP-N1 vector; expressed in transfected cells; host or cells: HEK293. The protocol: As a positive inhibition control, rifampicin at similar concentrations was used. Three independent experiments were performed. […] Proteins were precipitated by adding acetonitrile in a 1:1 ratio to the sample. […] The mobile phase gradient program was as follows: 0-0.6 min-35% A and 65% B, 0.6-5.0 min-5% A and 95% B, 5.0-8.0 min-35% A and 65% B. The flow rate and the column temperature were maintained at 300 μL/min and 35 °C. Aliquots (2 μL) of the extracted samples were injected.

Where [9] appears, read: human, EMHPS 10 µM, Caco-2 monolayer, M ± SD.
The mark [10] stands for this setting: human, EMHPS 100 µM, Caco-2 monolayer, M ± SD.
Where [11] appears, read: human, EMHPS 250 µM, Caco-2 monolayer, M ± SD.
[12] abbreviates: human, HEK293-SLCO1B1 cells, pH 7.4, probe atorvastatin 1 µM.

ABCB1, sequence (P08183 whole entry): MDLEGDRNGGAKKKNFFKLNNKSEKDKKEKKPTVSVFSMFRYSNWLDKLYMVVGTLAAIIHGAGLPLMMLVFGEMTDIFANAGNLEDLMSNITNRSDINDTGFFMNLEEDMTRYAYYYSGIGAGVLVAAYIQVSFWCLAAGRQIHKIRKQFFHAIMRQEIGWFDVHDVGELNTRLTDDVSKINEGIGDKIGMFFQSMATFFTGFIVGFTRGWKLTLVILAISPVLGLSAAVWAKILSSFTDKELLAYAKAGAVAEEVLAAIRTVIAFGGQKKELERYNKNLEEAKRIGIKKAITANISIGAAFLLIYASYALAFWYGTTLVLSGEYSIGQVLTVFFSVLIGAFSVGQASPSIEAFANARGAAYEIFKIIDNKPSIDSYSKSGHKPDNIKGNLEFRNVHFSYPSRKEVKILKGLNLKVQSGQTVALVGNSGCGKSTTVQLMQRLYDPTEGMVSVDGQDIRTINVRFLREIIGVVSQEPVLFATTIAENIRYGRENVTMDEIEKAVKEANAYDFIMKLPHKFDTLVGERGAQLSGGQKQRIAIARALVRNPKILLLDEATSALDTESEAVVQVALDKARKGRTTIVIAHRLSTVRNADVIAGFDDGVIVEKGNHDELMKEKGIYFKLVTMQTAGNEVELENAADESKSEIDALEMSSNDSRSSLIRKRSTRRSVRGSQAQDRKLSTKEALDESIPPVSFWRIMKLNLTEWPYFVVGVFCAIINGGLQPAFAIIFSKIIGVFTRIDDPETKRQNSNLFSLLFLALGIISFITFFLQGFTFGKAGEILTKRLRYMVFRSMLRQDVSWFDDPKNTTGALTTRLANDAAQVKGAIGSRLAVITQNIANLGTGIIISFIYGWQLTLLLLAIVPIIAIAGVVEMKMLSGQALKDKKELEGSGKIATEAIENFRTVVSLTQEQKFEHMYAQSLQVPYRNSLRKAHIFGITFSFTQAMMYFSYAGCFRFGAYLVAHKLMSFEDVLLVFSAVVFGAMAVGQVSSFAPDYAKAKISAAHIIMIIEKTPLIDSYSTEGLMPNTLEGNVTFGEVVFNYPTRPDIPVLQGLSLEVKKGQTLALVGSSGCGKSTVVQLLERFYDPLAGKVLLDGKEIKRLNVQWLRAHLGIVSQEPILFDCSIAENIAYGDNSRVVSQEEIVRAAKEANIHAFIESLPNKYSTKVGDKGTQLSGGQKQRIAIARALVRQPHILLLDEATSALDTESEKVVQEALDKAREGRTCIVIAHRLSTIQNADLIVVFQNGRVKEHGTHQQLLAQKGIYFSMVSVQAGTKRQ

In the case of `CCc1nc(C)ccc1O.O=C(O)CCC(=O)O` [EMHPS, 2-Ethyl-6-methyl-3-hydroxypyridine succinate], the viability at 24 h in data set [1] lay within 85 to 105%. Further, the viability at 24 h in data set [2] was in the range of 85 to 105%. The Cmax in data set [3] is 390 nM. In addition, the “effect on CYP3A4 isoenzyme” value in data set [4] is “inducer”. Further, the “neurological status compared with the placebo” value in data set [5] is “improved the neurological status”. Also, in data set [6], the “benefit over the placebo in basic neurological tests” value is given as “statistically significant benefit”. The “substrate of ABCB1” value in data set [7] (Caco-2 monolayer, 10, 100, and 250 µM) is “not a substrate of ABCB1”. Besides, in data set [7] (setting [9]), the apparent permeability from apical to basolateral (Papp A→B) at 180 min, 10 µM was determined as 7.66 ×10⁻⁶ cm/s and the apparent permeability from basolateral to apical (Papp B→A) at 180 min, 10 µM stood at 7.56 ×10⁻⁶ cm/s. The efflux ratio at 180 min, 10 µM in data set [7] (human, EMHPS 10 µM, Caco-2 monolayer, M ± SD, read-out: ER (Papp b-a/Papp a-b)) was found to be 0.99 ± 0.323. In data set [7] (setting [10]), this compound returned an apparent permeability from apical to basolateral (Papp A→B) at 180 min, 100 µM of 7.05 ×10⁻⁶ cm/s and a basolateral-to-apical permeability (Papp B→A) at 180 min, 100 µM of 6.63 ×10⁻⁶ cm/s. In data set [7] (human, EMHPS 100 µM, Caco-2 monolayer, M ± SD, read-out: ER (Papp b-a/Papp a-b)), the efflux ratio at 180 min, 100 µM came out at 0.94 ± 0.039. In data set [7] (setting [11]), the apical-to-basolateral permeability (Papp A→B) at 180 min, 250 µM worked out at 22.3 ×10⁻⁶ cm/s and the Papp B→A at 180 min, 250 µM is 16.5 ×10⁻⁶ cm/s. The efflux ratio at 180 min, 250 µM in data set [7] (human, EMHPS 250 µM, Caco-2 monolayer, M ± SD, read-out: ER (Papp b-a/Papp a-b)) amounted to 0.75 ± 0.26. Besides, the efflux ratio at 180 min in data set [7] (human, all concentrations (10, 100, and 250 µM), Caco-2 monolayer, read-out: ER (Papp b-a/Papp a-b)) is approximately 1. The compound further displayed an IC50 in data set [8] of 12.1 ± 7.64 µM. In data set [8] (setting [12]), this compound registered an inhibition at 100 µM of 64.7% and an inhibition at 500 µM of 90.6%.
